Values after ≈ are worked out from the molar mass of the structure shown.

One may read the MIC as the lowest concentration found to suppress growth. One may read the IC50 as the concentration needed to halve the response being measured.

What all share (assay type): cell-based
For assay [1], the system named is Staphylococcus aureus VRS-2 (VRSA). As to the kind of experiment: MIC assay against gram positive and antibiotic-resistant S. aureus. Conditions: Staphylococcus aureus VRS-2, VRSA; read-out: MIC. As for the experimental part: (§1) The MICs of vancomycin and linezolid were determined as quality controls and the MIC values of each strain met the acceptance criteria based on PDS historical reference data.
(§2) The direct colony suspension method was used to prepare inoculated broth. Isolated colonies were taken from an 18-24 h culture plate. Optical density measurements (OD620 nm) were used to estimate the bacterial density. The test article, compound 3, and reference control stock solutions were prepared in 100% DMSO as 50× stock solutions. The 50× stock solutions were diluted by 2-fold serial titrations with 100% DMSO for a total of 11 concentrations. A 4 μL aliquot of each dilution was added to 196 μL of cation-adjusted Mueller Hinton Broth II medium seeded with the organism in wells of a 96 well plate. The final vehicle concentration was two percent (2%) in all assay wells. The final bacterial count was 2 to 8×10^5 CFU/mL. The final compound 3 concentration range was 16 to 0.016 μg/mL. Each test substance dilution was evaluated in duplicate on one test occasion. Vehicle-control and reference controls were used as blank and positive controls, respectively. Plates were incubated at 35-37° C. for 18 h. The test plates were visually examined and each well was visually scored for growth or complete inhibition of growth. The MIC value was recorded.

The test system of assay [2] is Staphylococcus aureus BAA-1556 (MRSA). Described as above. The conditions noted are these: Staphylococcus aureus BAA-1556, MRSA; read-out: MIC. The method, then: as §1, §2
In assay [3] the test system is Staphylococcus aureus ATCC 19636. Described as above. Conditions: ATCC19636; Staphylococcus aureus ATCC 19636; read-out: MIC. As for the experimental part:
as §1, §2

Assay [4] concerns Staphylococcus aureus ATCC 33591 (MRSA). Described as above. Conditions: Staphylococcus aureus ATCC 33591, MRSA; read-out: MIC. The method, then:
as §1, §2

The test system of assay [5] is Klebsiella pneumoniae (FDA-CDC AR-BANK#0160). As to the kind of experiment: Checkerboard/MIC assay with rifampicin. The conditions noted are these: Klebsiella pneumoniae AR-BANK#0160. The source says:
(§3) The 17 test strains/isolates were: (1) Serratia marcescens (ATCC 13880); (2) Salmonella typhimurium (ATCC 13311); (3) Salmonella choleraesuis (ATCC 10708); (4) Acinetobacter baumannii (ATCC BAA-1605); (5) A. baumannii (ATCC 17978); (6) A. baumannii (FDA-CDC AR-BANK#0088); (7) Citrobacter freundii (ATCC 8090); (8) Pseudomonas aeruginosa (BCCM 27647); (9) P. aeruginosa (BCCM 27648); (10) Escherichia coli (ATCC 25922); (11) E. coli (ATCC 10536); (12) Stenotrophomonas maltophilia (ATCC 13637); (13) Enterobacter cloacae (ATCC BAA-1143); (14) E. cloacae (ATCC 13047); (15) E. aerogenes (ATCC 13048); (16) Klebsiella pneumoniae (NCTC 13438); and (17) Klebsiella pneumoniae (FDA-CDC AR-BANK#0160). These bacterial strains were obtained from the American Type Culture Collection (ATCC, Rockville, MD, USA); Belgian Coordinated Collections of Microorganisms; The Culture Collections of Public Health England, UK; and FDA-CDC anticimrobial Resistance Isolate Bank, USA, and cryopreserved as single-use frozen working stock cultures which were stored at −80° C.
(§4) The 17 test strains were grown on nutrient agar or tryptic soy agar (TSA) medium as below. Colonies were suspended in phosphate buffered saline (PBS) pH 7.4. The absorbance of the bacterial suspension was measured with a spectrophotometer at OD620nm, and then the suspension was adjusted to 1-2×10^8 CFU/mL in PBS. The adjusted suspension was further diluted 1:500 in cation-adjusted Mueller-Hinton Broth. Each well contained approximately 5×10^5 CFU/mL. […] The testing inoculum was prepared within minutes before adding to wells of the test plate.
(§5) Compound 3 was tested in 8 points by two-fold serial titrations from 100 to 0.78 μg/mL. […] Assay plates were incubated and MIC endpoints were read as complete inhibition of visual growth. The checkerboard combination analysis was performed following the MIC testing protocol to identify potential synergistic, indifferent or antagonistic interactions. The analysis also included each test substance alone at the same concentration ranges.
(§6) FIC (Fraction Inhibitory Concentration) and FIC Index (FICI) values for each test condition and the average of FICI values of all pairwise combinations were calculated to determine if synergy or antagonism existed between the two substances. The FIC index was determined by calculating the sum of the ratios of MICs (minimum inhibitory concentrations) for both substances. […] Synergy is defined as the FICI (Σ)≤0.5; additivity or indifference are defined as the FICI (Σ)>0.5 to ≤4; antagonism is defined as the FICI (Σ)>4. The two fold of highest test article concentration was used for FIC value calculations in the circumstances where MIC values were greater than the highest test article concentration.

Assay [6] concerns Escherichia coli (ATCC 25922). As to the kind of experiment: Checkerboard/MIC assay with rifampicin.
Text: as §3, §4, §5, §6

The test system of assay [7] is NCI H69 cells. Nature of the assay: CellTiter-Glo cell viability assay (cytotoxicity), 8 days. Conditions: Homo sapiens, 192 h, full growth media. As for the experimental part: The experiment tested pentamidine, Compounds 1-6 in full growth media for 8 days. NCI H69 cells were initially treated with the test compounds on Day 0, and the cells were then replenished with fresh compound dilutions on Day 3. Pentamidine and Compound 1 were tested at 9 concentration points: 100 μM, 33.33 μM, 11.11 μM, 3.70 μM, 1.23 μM, […], 0.05 μM, and 0.02 μM (final DMSO concentration=0.5%). The raw data values from the CellTiter-Glo™ cell viability assay expressed in relative luminescence units were normalized to the vehicle for each individual plate, and any reduction in luminescence indicated a decrease in viability (%). The data was analyzed in GraphPad PRISM using a non-linear sigmoidal plot with variable slope (asymmetric four-point […]), and an IC50 value for each compound was generated based on the normalized dose-response curves and shown in Table 1.

Where [8] appears, read: compound 3 in combination with rifampicin.

Turning to `N=C(N)c1ccc(CC[C@H]2CCC[C@@H](CCc3ccc(C(=N)N)cc3)C2)cc1` [Compound 3, 4,4′-(2,2′-((1R,3S)-cyclohexane-1,3-diyl)bis(ethane-2,1-diyl))dibenzimidamide], the MIC in assay [1] is 0.25 µg/mL (≈ 0.664 µM); in assay [2], 0.25 µg/mL (≈ 0.664 µM); in assay [3] it was 0.125 µg/mL (≈ 0.332 µM); in assay [4], 0.125 µg/mL (≈ 0.332 µM); in assay [5] (substance alone), 100 µg/mL; in assay [6] (ATCC25922, substance alone), 6.25 µg/mL. For the same compound, the “Combination Result” value in assay [5] (setting [8]) was “synergy (Synergy is defined as the FICI (Σ)≤0.5)”; in assay [6] (setting [8]) it was “additivity/”. In addition, the “FICI (Average)” value worked out at 0.19 in assay [5] (setting [8]) and 0.52 in assay [6] (setting [8]). Inhibition in assay [7] was half-maximal at 0.8 µM (IC50).

These data come from US20230391727A1, “ANALOGUES OF PENTAMIDINE AND METHODS FOR TREATING INFECTIONS” (Auransa Inc., priority 2020, published 2023).
